Reference: patent US20090036384A1, “INCREASING PREGNANCY RATES” (PARNELL LABORATORIES (AUST) PTY LIMITED, priority 2005, published 2009)
Like-named read-outs stand apart in the source and are kept apart here. Each block holds one compound with its values, some of them ahead of it.

What was measured:
[1] = Progesterone solubility trials; type: physicochemical
Description: The purpose of the formulation studies was to establish a product vehicle that was suitable for solubilisation of a relatively high concentration of Progesterone but in which Gonadorelin would be stable. […] Low solubility of Progesterone (even in organic solvents) further limited the choice of injectable organic vehicles.
Further Solubility Trials were conducted as follows: […]

[2] = Progesterone solubility and precipitation at low temperature (2-8° C.); type: physicochemical; settings: solubility study; most appropriate combination
Description: Since addition of acids reduced the amount of NMP available for dissolution of Progesterone, samples prepared with different acids were refrigerated at 2-8° C. to investigate progesterone solubility and the occurrence of precipitation at low temperatures. The appearance of crystals in samples prepared with formic and hydrochloric acid was obvious after several hours of refrigeration. Crystals appeared after 1-2 days in samples prepared with phosphoric acid. FTIR testing confirmed that the precipitate was crystalline progesterone, which was difficult to redissolve due to the crystalline form of the precipitate. At this stage a further search for vehicle that would provide sufficient progesterone solubility at low temperatures was conducted. […] A solubility study confirmed that the most appropriate combination was NMP+water+phosphoric acid with progesterone amount not exceeding 8-10% w/v.

[3] = system: cows; settings: cited from earlier work
[4] = system: LH; settings: exogenous GnRH; cited from earlier work
[5] = system: cows; settings: cited from earlier work; remark: listed apart in the source
[6] = literature study; cited from earlier work
[7] = system: LH; settings: in vivo; cited from earlier work

Solubility of Progesterone ([1]; pure solvent PEG400): marginal | Solubility of Progesterone ([1]; pure solvent Propylene Glycol): marginal | Solubility of Progesterone ([1]; pure solvent Tetraglycol): marginal | progesterone amount in NMP+water+phosphoric acid [2]: 8-10 % w/v
Structure (SMILES): CC(=O)[C@H]1CC[C@H]2[C@@H]3CCC4=CC(=O)CC[C@]4(C)[C@H]3CC[C@]12C [Progesterone]
average serum progesterone levels ([3]; beef cows primed via a used CIDR implant): 1.5 ng/mL | serum Progesterone levels that provide effective biological activity ([3]; in vivo): 1-3 ng/mL | follicle size ([3]; three days of progesterone treatment): 13.7 mm

Structure (SMILES): CC(C)C[C@H](NC(=O)CNC(=O)[C@H](Cc1ccc(O)cc1)NC(=O)[C@H](CO)NC(=O)[C@H](Cc1c[nH]c2ccccc12)NC(=O)[C@H](Cc1cnc[nH]1)NC(=O)[C@@H]1CCC(=O)N1)C(=O)N[C@@H](CCCNC(=N)N)C(=O)N1CCC[C@H]1C(=O)NCC(N)=O [GnRH]
duration of GnRH-induced LH surge [4]: 7 to 14 h | peak serum levels of LH [4]: 9 to 22 ng/mL | ovulation rate ([5]; 25 μg of GnRH): dramatic reduction in ovulation rates | ovulation rate ([5]; 50 μg of GnRH): identical ovulation rate to 100 μg

Structure (SMILES): CN1CCCC1=O [NMP, N-methyl-2-pyrrolidone]
pH of NMP [6]: approximately 11.5

Structure (SMILES): C[C@]12CC[C@@H]3c4ccc(O)cc4CC[C@H]3[C@@H]1CC[C@@H]2OC(=O)CCC1CCCC1 [ECP, Estradiol Cypionate]
time of LH surge after administration [7]: around 40 hours
